Test systems include SF-295 CNS; SF-539 CNS; MOLT-4 leukemia; UO-31 renal; ACHN renal; M14 melanoma; CAKI-1 renal; 786-0 renal; OVCAR-3 ovarian; NCI/ADR-RES ovarian.
Common to all, as to assay: growth of human tumour cells (NCI), 48 h

“And” between values parts separate entries of the source, which are not always exact repeats. Equal entries are not always repeated.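 Dose response: 5 concentrations. Exposure: 48 h. Format: 96-well plates. Endpoint: linear interpolation; highest concentration if not reached. At the GI50, growth is halved. TGI: concentration producing complete growth inhibition.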 A value given as a limit tells only on which side of the number the result lay.

For `CCCn1cnc2c(SCc3ccccc3)nc(N)nc21`, the GI50 is 32.1 µM with SF-295 CNS; greater than 100 µM in the assay with SF-539 CNS; 95.7 µM in the assay on MOLT-4 leukemia; 67.7 µM in the assay on UO-31 renal; greater than 100 µM in the assay on ACHN renal; greater than 100 µM in the assay on M14 melanoma. Also, the GI50 in the assay on CAKI-1 renal was 89.3 µM; in the assay with 786-0 renal it was greater than 100 µM; in the assay with OVCAR-3 ovarian, greater than 100 µM; in the assay with NCI/ADR-RES ovarian, 63.2 µM. Besides, the TGI with SF-295 CNS, in the assay with SF-539 CNS, in the assay on MOLT-4 leukemia, in the assay on UO-31 renal, with ACHN renal and with M14 melanoma was greater than 100 µM in each case. The TGI in the assay on CAKI-1 renal, in the assay with 786-0 renal, with OVCAR-3 ovarian and in the assay with NCI/ADR-RES ovarian was greater than 100 µM throughout.

In the case of `CN(C)C(=O)SC1=C(c2c(Cl)cccc2Cl)C(=O)c2ccccc21`, the GI50 was 16.6 µM in the assay on SF-295 CNS; 9.01 µM in the assay with SF-539 CNS; 2.5 µM in the assay on MOLT-4 leukemia; 2.18 µM with UO-31 renal; 2.23 µM with ACHN renal; 3.03 µM in the assay with M14 melanoma. Moreover, the GI50 is 2.15 µM in the assay with CAKI-1 renal, 10.3 µM in the assay with 786-0 renal, 1.96 µM with OVCAR-3 ovarian and 9.42 µM in the assay on NCI/ADR-RES ovarian. For the same compound, the TGI in the assay on SF-295 CNS was 33.7 µM; in the assay with SF-539 CNS, 22.8 µM; with MOLT-4 leukemia, 7.06 µM; in the assay on UO-31 renal, 6.51 µM; in the assay with ACHN renal, 5.03 µM; in the assay on M14 melanoma, 7.79 µM. In addition, the TGI in the assay with CAKI-1 renal came out at 5.72 µM; in the assay on 786-0 renal, 22.4 µM; in the assay on OVCAR-3 ovarian, 3.8 µM; with NCI/ADR-RES ovarian, 25.8 µM.

With `O=c1[nH]c2cc(Cl)c(Cl)cc2n2cc3ccccc3c12`, the GI50 with SF-295 CNS is 16.2 µM; in the assay on SF-539 CNS, 19.1 µM; in the assay on MOLT-4 leukemia, 18.7 µM; in the assay with UO-31 renal it was 17.9 µM; with ACHN renal, 15.5 µM; in the assay on M14 melanoma, 23 µM. The GI50 in the assay with CAKI-1 renal is 20.6 µM; in the assay with 786-0 renal it was 24.9 µM; in the assay on OVCAR-3 ovarian, 18.4 µM; in the assay with NCI/ADR-RES ovarian, 17.7 µM. For the same compound, the TGI turned out to be 29.9 µM in the assay on SF-295 CNS; 39.5 µM in the assay on SF-539 CNS; 36.7 µM in the assay on MOLT-4 leukemia; 32.8 µM with UO-31 renal; 28.9 µM in the assay on ACHN renal; 39.7 µM in the assay with M14 melanoma. Besides, the TGI stood at 34.9 µM with CAKI-1 renal, 39.6 µM in the assay with 786-0 renal, 32.4 µM with OVCAR-3 ovarian and 31.6 µM in the assay on NCI/ADR-RES ovarian.

On to `CC(=O)Oc1ccc(C2(c3ccc(OC(C)=O)cc3)C(=O)Nc3ccccc32)cc1`, for which the GI50 in the assay with SF-295 CNS is 23.5 µM and 38.3 µM; with SF-539 CNS it was 26.3 µM and 50.2 µM; in the assay with MOLT-4 leukemia, 16.3 µM and 28.3 µM; in the assay with UO-31 renal it was 24 µM and 27.5 µM; in the assay with ACHN renal, 18.9 µM and 30.6 µM; in the assay on M14 melanoma, 34.4 µM and 38.2 µM. The GI50 is 31.4 µM and 31.8 µM in the assay on CAKI-1 renal; 42.6 µM and 46.6 µM with 786-0 renal; 0.081 µM and 0.131 µM in the assay with OVCAR-3 ovarian; 1.16 µM and 1.8 µM in the assay on NCI/ADR-RES ovarian. Further, the TGI with SF-295 CNS, with SF-539 CNS, with MOLT-4 leukemia, in the assay on UO-31 renal, in the assay on ACHN renal and in the assay with M14 melanoma was greater than 100 µM each time. Also, the TGI in the assay on CAKI-1 renal was greater than 100 µM; in the assay on 786-0 renal it was greater than 100 µM; with OVCAR-3 ovarian, > 35.8 µM and 26 µM; in the assay with NCI/ADR-RES ovarian, greater than 100 µM.

Take `CC(C)(C)[Si](C)(C)OCC1OC(n2cnc3c(N)ncnc32)C(O)C1O` (stereo not given): the TGI in the assay on SF-295 CNS, with SF-539 CNS, in the assay with MOLT-4 leukemia, in the assay on UO-31 renal, with ACHN renal and with M14 melanoma was greater than 100 µM in each case. Also, the TGI in the assay with CAKI-1 renal, in the assay on 786-0 renal, in the assay on OVCAR-3 ovarian and in the assay with NCI/ADR-RES ovarian was greater than 100 µM throughout.

As for `NC(N)=N/N=C/c1c(-c2ccc(Cl)c([N+](=O)[O-])c2)nc2n1CCS2`, the GI50 in the assay with SF-295 CNS was 7 µM; with SF-539 CNS it was 7.4 µM; in the assay on MOLT-4 leukemia it was 3.4 µM; with UO-31 renal it was 26 µM; in the assay with ACHN renal, 15.7 µM; in the assay on M14 melanoma, 15.4 µM. Moreover, the GI50 is 13.5 µM in the assay on CAKI-1 renal, 4.18 µM in the assay with 786-0 renal, 1.93 µM in the assay with OVCAR-3 ovarian and 15.8 µM with NCI/ADR-RES ovarian. The TGI is 20.8 µM in the assay on SF-295 CNS; 26.5 µM in the assay on SF-539 CNS; 36 µM in the assay on MOLT-4 leukemia; 89 µM with UO-31 renal; 37.2 µM in the assay on ACHN renal; 29.1 µM with M14 melanoma. In addition, the TGI was found to be 28 µM in the assay on CAKI-1 renal, 15.3 µM in the assay on 786-0 renal, 3.91 µM in the assay with OVCAR-3 ovarian and 32.7 µM with NCI/ADR-RES ovarian.

Consider `O=C(Nc1ccc(Cl)cc1)Nc1ccccc1CNc1nc(Nc2ccc(OCCN3CCCC3)cc2)ncc1Cl`, for which the GI50 in the assay with SF-295 CNS is 7.65 µM; in the assay on SF-539 CNS, 0.863 µM; in the assay on MOLT-4 leukemia, 1.19 µM; in the assay on UO-31 renal, 0.782 µM; in the assay on ACHN renal it was 0.929 µM; in the assay with M14 melanoma it was 0.832 µM. Moreover, the GI50 with CAKI-1 renal was 7.44 µM; in the assay with 786-0 renal, 0.871 µM; in the assay on OVCAR-3 ovarian, 0.935 µM; with NCI/ADR-RES ovarian it was 1.16 µM. For the same compound, the TGI in the assay on SF-295 CNS stood at 14.6 µM; with SF-539 CNS, 1.61 µM; in the assay with MOLT-4 leukemia, 2.99 µM; with UO-31 renal it was 1.59 µM; in the assay on ACHN renal, 1.78 µM; in the assay with M14 melanoma, 1.68 µM. The TGI stood at 14 µM in the assay with CAKI-1 renal, 1.61 µM in the assay on 786-0 renal, 1.71 µM in the assay with OVCAR-3 ovarian and 2.64 µM with NCI/ADR-RES ovarian.

Regarding `Nc1ccn([C@@H]2C(F)=C(CO)[C@@H](O)[C@H]2O)c(=O)n1`, the GI50 was 4.2 µM in the assay with SF-295 CNS; 1.94 µM in the assay with SF-539 CNS; 1.85 µM with MOLT-4 leukemia; 0.462 µM in the assay on UO-31 renal; 0.755 µM in the assay on ACHN renal; 0.859 µM in the assay with M14 melanoma. In addition, the GI50 in the assay on CAKI-1 renal is 7.1 µM; in the assay on 786-0 renal, 0.726 µM; in the assay on OVCAR-3 ovarian, 4.17 µM; in the assay with NCI/ADR-RES ovarian, 0.578 µM. Moreover, the TGI in the assay with SF-295 CNS, with SF-539 CNS, with MOLT-4 leukemia, with UO-31 renal, in the assay with ACHN renal and with M14 melanoma was greater than 100 µM in each case. Further, the TGI in the assay on CAKI-1 renal, in the assay on 786-0 renal, with OVCAR-3 ovarian and with NCI/ADR-RES ovarian was greater than 100 µM in each case.

Source of the values: PubChem BioAssay (NCI).
